# In US5516936A, “Inhibitors of kynureninase” (University of Georgia Research Foundation, Inc., priority 1993, dated 1996):
# T1: rat liver kynureninase (Rattus norvegicus, UniProt P70712)
# T1 construct: host or cells: rat liver
# T1 sequence (P70712 1-464): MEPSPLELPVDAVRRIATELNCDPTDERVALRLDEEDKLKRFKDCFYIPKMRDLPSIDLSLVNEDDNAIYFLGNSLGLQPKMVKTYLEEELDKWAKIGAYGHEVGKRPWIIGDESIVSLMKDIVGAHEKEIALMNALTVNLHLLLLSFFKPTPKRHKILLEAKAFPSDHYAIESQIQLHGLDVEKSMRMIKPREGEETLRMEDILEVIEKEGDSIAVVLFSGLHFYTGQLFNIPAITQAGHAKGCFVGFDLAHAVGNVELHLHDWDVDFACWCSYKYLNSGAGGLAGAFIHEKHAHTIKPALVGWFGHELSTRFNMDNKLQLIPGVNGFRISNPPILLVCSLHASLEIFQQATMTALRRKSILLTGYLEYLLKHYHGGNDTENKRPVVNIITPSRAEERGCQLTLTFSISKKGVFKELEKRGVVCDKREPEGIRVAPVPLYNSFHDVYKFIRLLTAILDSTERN
# Assays:
# kynureninase = conditions: cited from earlier work
# rat liver kynureninase = target: T1, rat liver kynureninase; conditions: cited from earlier work
# [1] = substrate: Nc1ccccc1C(=O)C[C@H](N)C(=O)O; experiment: Reactivity of dihydrokynurenine and L-kynurenine with bacterial kynureninase; type: biochemical, Pseudomonas fluorescens; conditions: other: L-kynurenine, present work, 30.0 °C
# Description: The reactivity of the two dihydrokynurenines with kynureninase in 0.1M potassium phosphate buffer, pH 8.0, at 25° was examined. Reaction was followed by the appearance of o-aminobenzaldehyde, as determined spectrophotometrically by the increase in absorbance at 360 nm (See Tanizawa and Soda (1979) Biochem. (Tokyo) 86:1199-1209, which is incorporated by reference herein).
molecule,measurement,setting,value
"NC(C(=O)O)C(F)(F)C(=O)c1ccccc1 (stereo not drawn) [2,2-difluoro-α-benzoyl alanine, α-amino-β,β-difluoro-γ-oxobenzene butanoic acid]",inhibition of kynureninase (in words),kynureninase,competitive inhibitor of kynureninase
N[C@@H](CSc1nc2ccccc2s1)C(=O)O [S-2-(benzothiazolyl)-L-cysteine],cleavage by rat liver kynureninase (in words),rat liver kynureninase,"cleavage of S-2-(benzothiazolyl)-L-cysteine to give 2-mercaptobenzothiazole, pyruvate and ammonia"
"Kynureninase (Pseudomonas fluorescens) (protein, Bacterial kynureninase was prepared from cells of Pseudomonas fluorescens; endogenous in cells; partially purified by DEAE-cellulose and ammonium sulfate) MTTRNDCLALDAQDSLAPLRQQFALPEGVIYLDGNSLGARPVAALARAQAVIAEEWGNGLIRSWNSAGWRDLSERLGNRLATLIGARDGEVVVTDTTSINLFKVLSAALRVQATRSPERRVIVTETSNFPTDLYIAEGLADMLQQGYTLRLVDSPEELPQAIDQDTAVVMLTHVNYKTGYMHDMQALTALSHECGALAIWDLAHSAGAVPVDLHQAGADYAIGCTYKYLNGGPGSQAFVWVSPQLCDLVPQPLSGWFGHSRQFAMEPRYEPSNGIARYLCGTQPITSLAMVECGLDVFAQTDMASLRRKSLALTDLFIELVEQRCAAHELTLVTPREHAKRGSHVSFEHPEGYAVIQALIDRGVIGDYREPRIMRFGFTPLYTTFTEVWDAVQILGEILDRKTWAQAQFQVRHSVT",Km,[1],25 µM
